Results published in US20240417406A1, “NITROGEN-CONTAINING TRICYCLIC COMPOUND AND PHARMACEUTICAL USE THEREOF” (JAPAN TOBACCO INC., priority 2021, published 2024).

Target: human PDHK2 (hPDHK2) (Homo sapiens (Human), UniProt Q15119)
Assay: Inhibitory action of PDHK2 activity (PDH/hPDHK2 complex, residual PDH activity by NADH absorbance at 340 nm)
Assay type: biochemical
Conditions: FLAG-tagged recombinant hPDHK2 with porcine heart PDH complex; PDHK reaction 45 min at room temperature
Protocol: In the case of human PDHK2 (hPDHK2, NCBI Reference Database Accession number NM_002611.4), modified hPDHK2 cDNA wherein FLAG-Tag sequence was added to the N terminal of hPDHK2 cDNA clone (pReceiver-M01/PDK2-GeneCopoeia) as the base was prepared by polymerase chain reaction (PCR) and ligated to the NdeI/EcoRI site of pET-17b vector (Merck KGaA, Catalog Number 69663-3). The recombinant construct was transformed into Escherichia coli DH5a. The recombinant clones were identified, and plasmid DNA was isolated and subjected to the DNA sequence analysis. One clone which had the expected nucleic acid sequence was selected for expression work.
For expression of hPDHK2 activity, Escherichia coli strain BL21(DE3) cells (Merck KGaA, Catalog Number 69450-4) were transformed with the pET17b vector containing modified hPDHK2 cDNA. The Escherichia coli were grown to an optical density 0.6 ([…]) at 30° C. Protein expression was induced by the addition of 500 μmol/L isopropyl-β-thiogalactopyranoside. The Escherichia coli were cultured at 20° C. for 17 to for 18 hr and harvested by centrifugation. The harvested Escherichia coli was resuspended in a suspension buffer (20 mmol/L HEPES-NaOH, 500 mmol/L sodium chloride, 1% ethylene glycol, 0.1% Pluronic (registered trademark) F-68 (pH 8.0), cOmplete, EDTA-free (Roche) (pH 8.0)), and disrupted by a microfluidizer M-110H (MIZUHO INDUSTRIAL CO., LTD.). The precipitate was removed by centrifugation and the supernatant was added to DDDDK-tagged Protein PURIFICATION GEL (MEDICAL & BIOLOGICAL LABORATORIES CO., LTD., Code No. 3329). DDDDK-tagged Protein PURIFICATION GEL was washed with a washing buffer (20 mmol/L HEPES-NaOH, 500 mmol/L sodium chloride, 1% ethylene glycol, 0.1% Pluronic F-68 (pH 8.0)) and the bound protein was eluted with elution buffer 1 (20 mmol/L HEPES-NaOH, 100 μg/mL peptide (amino acid sequence DYKDDDDK) (SEQ ID NO: 1), 500 mmol/L sodium chloride, 1% ethylene glycol, 0.1% Pluronic F-68 (pH 8.0)). The eluted fractions containing FLAG-Tagged protein were pooled, concentrated by an ultrafiltration method, added to a gel filtration column (HiLoad 26/60 Superdex 200 (GE Healthcare Life Sciences, Code No. 17-1070-01)), and eluted with elution buffer 2 (20 mmol/L HEPES-NaOH, 150 mmol/L sodium chloride, 0.5 mmol/L ethylenediaminetetraacetic acid (EDTA), 1% ethylene glycol, 0.1% Pluronic F-68 (pH 8.0)). The eluted fractions were pooled and preserved at −80° C.
PDH (porcine heart PDH complex, Sigma P7032) and 0.5 μg/mL hPDHK2 were mixed in an assay buffer (50 mmol/L 3-morpholinopropanesulfonic acid (pH 7.0), 20 mmol/L dipotassium hydrogen phosphate, 60 mmol/L potassium chloride, 2 mmol/L magnesium chloride, 0.4 mmol/L EDTA, 0.2% poloxamer, 2 mmol/L dithiothreitol) so that the final concentration of PDH was 0.025 U/mL, and the mixture was incubated at 4° C. overnight to obtain a PDH/hPDHK2 complex solution.
PDH was mixed with the assay buffer so that the final concentration was 0.025 U/mL, and the mixture was incubated at 4° C. overnight to prepare a PDH solution.
The test compounds were diluted with DMSO. […] DMSO (1.5 μL) was added to control wells instead of test compound. In addition, DMSO (1.5 μL) was added to blank wells instead of the test compound, and PDH solution was added instead of the PDH/hPDHK2 complex solution. To measure an inhibitory action of the test compound on the PDHK activity inherent in the PDH solution, a test compound was added and the PDH solution instead of the PDH/hPDHK2 complex solution was added to a blank+test compound well.
Then, 10 μL of substrates (5 mmol/L sodium pyruvate, 5 mmol/L Coenzyme A, 12 mmol/L NAD, 5 mmol/L thiamine pyrophosphate, diluted with assay buffer) were added. The mixture was incubated at room temperature for 90 min, and the residual PDH activity was measured.
The absorbance of each well at 340 nm was measured using a microplate reader to detect NADH produced by the PDH reaction. […]

Row | SMILES | IC50 [nM]
1 | C[C@H]1Cn2c(nnc2C(C)(F)F)-c2onc([C@@](C)(O)C(F)(F)F)c21 [Example 3] | 20.4
2 | C[C@H]1Cc2nn([C@H]3CC[C@](C)(O)CC3)cc2-c2onc([C@@](C)(O)C(F)(F)F)c21 [Example 105, (1S,4r)-1-methyl-4-((S)-4-methyl-3-((R)-1,1,1-trifluoro-2-hydroxypropan-2-yl)-4,5-dihydro-7H-isoxazolo[5,4-e]indazol-7-yl)cyclohexan-1-ol] | 10
3 | C[C@H]1Cc2[nH]ncc2-c2onc([C@@](C)(O)C(F)(F)F)c21 (racemic) [Example 20] | 22.6
4 | C[C@H]1Cc2nn(CCC(C)(C)O)cc2-c2onc([C@@](C)(O)C(F)(F)F)c21 [Example 41] | 9.1
5 | C[C@H]1Cn2c(nnc2C23CCC(C(C)(C)O)(CC2)CC3)-c2onc([C@@](C)(O)C(F)(F)F)c21 [Example 12] | 6
6 | C[C@H]1Cn2c(nnc2C2(C(F)(F)F)CC2)-c2onc([C@@](C)(O)C(F)(F)F)c21 [Example 2] | 19.2
7 | C[C@H]1Cc2c(cnn2C2CC(C#N)C2)-c2onc([C@@](C)(O)C(F)(F)F)c21 (stereo in doubt) [Example 26] | 18.2
8 | C[C@H]1Cc2c(cnn2[C@H]2C[C@@](C)(C#N)C2)-c2onc([C@@](C)(O)C(F)(F)F)c21 (racemic) [Example 57, (1R,3s)-1-methyl-3-((S)-4-methyl-3-((R)-1,1,1-trifluoro-2-hydroxypropan-2-yl)-4,5-dihydro-6H-isoxazolo[5,4-e]indazol-6-yl)cyclobutane-1-carbonitrile and enantiomer thereof] | 28.5
9 | C[C@H]1Cn2c(nnc2C(C)(C)F)-c2onc([C@@](C)(O)C(F)(F)F)c21 [Example 4] | 10.9
10 | C[C@H]1Cc2nn(CC(C)(C)O)cc2-c2onc([C@@](C)(O)C(F)(F)F)c21 (racemic) [Example 38] | 25.2
11 | C[C@H]1Cc2[nH]ncc2-c2onc([C@@](C)(O)C(F)(F)F)c21 [Example 28, (R)-1,1,1-trifluoro-2-((S)-4-methyl-5,6-dihydro-4H-isoxazolo[5,4-e]indazol-3-yl)propan-2-ol] | 8.5
12 | C[C@H]1Cc2c(cnn2[C@H]2C[C@](C)(C#N)C2)-c2onc([C@@](C)(O)C(F)(F)F)c21 (racemic) [Example 53, (1S,3r)-1-methyl-3-((S)-4-methyl-3-((R)-1,1,1-trifluoro-2-hydroxypropan-2-yl)-4,5-dihydro-6H-isoxazolo[5,4-e]indazol-6-yl)cyclobutane-1-carbonitrile and enantiomer thereof] | 8.8

Further lines, results first:

Row | IC50 [nM] | SMILES
13 | 18.6 | C[C@H]1Cn2nc(N3CC4CC3C4)cc2-c2cnc([C@@](C)(O)C(F)(F)F)n21 [Example 83]
14 | 18.1 | C[C@H]1Cn2nc(O[C@H]3C[C@@](C)(C#N)C3)cc2-c2onc([C@@](C)(O)C(F)(F)F)c21 (racemic) [Example 48]
15 | 13.7 | C[C@H]1Cn2nc(OCC(C)(C)O)cc2-c2onc([C@@](C)(O)C(F)(F)F)c21 [Example 31, (R)-1,1,1-trifluoro-2-((R)-8-(2-hydroxy-2-methylpropoxy)-4-methyl-4,5-dihydroisoxazolo[5,4-c]pyrazolo[1,5-a]pyridin-3-yl)propan-2-ol]
16 | 36.5 | C[C@H]1Cn2nc(N3CC4(C3)CC(F)(F)C4)cc2-c2cnc([C@@](C)(O)C(F)(F)F)n21 [Example 84, (R)-2-((S)-9-(6,6-difluoro-2-azaspiro[3.3]heptan-2-yl)-5-methyl-5,6-dihydroimidazo[1,5-a]pyrazolo[5,1-c]pyrazin-3-yl)-1,1,1-trifluoropropan-2-ol]
17 | 10.9 | C[C@H]1Cn2nc(OCc3ccccc3)cc2-c2onc([C@@](C)(O)C(F)(F)F)c21 (racemic) [Example 15]
18 | 14.4 | C[C@H]1Cn2nc(N3CCC4(CC3)COC4)cc2-c2cnc([C@@](C)(O)C(F)(F)F)n21 [Example 77]
19 | 12.3 | C[C@H]1Cn2nc(C34CC(C#N)(C3)C4)cc2-c2cnc([C@@](C)(O)C(F)(F)F)n21 [Example 72]
20 | 21.3 | C[C@H]1Cn2nccc2-c2onc([C@@](C)(O)C(F)(F)F)c21 (racemic) [Example 17]
21 | 6.6 | C[C@H]1Cn2nc(O[C@H]3CC[C@](C)(O)CC3)cc2-c2onc([C@@](C)(O)C(F)(F)F)c21 [Example 65, (1R,4r)-1-methyl-4-(((R)-4-methyl-3-((R)-1,1,1-trifluoro-2-hydroxypropan-2-yl)-4,5-dihydroisoxazolo[5,4-c]pyrazolo[1,5-a]pyridin-8-yl)oxy)cyclohexan-1-ol]
22 | 9.1 | C[C@H]1Cn2nc(C34CCC(C(C)(C)O)(CC3)CO4)cc2-c2cnc([C@@](C)(O)C(F)(F)F)n21 [Example 98, (R)-1,1,1-trifluoro-2-((S)-9-(4-(2-hydroxypropan-2-yl)-2-oxabicyclo[2.2.2]octan-1-yl)-5-methyl-5,6-dihydroimidazo[1,5-a]pyrazolo[5,1-c]pyrazin-3-yl)propan-2-ol]
23 | 8.7 | C[C@H]1Cn2nc(OCC3(C#N)CC3)cc2-c2onc([C@@](C)(O)C(F)(F)F)c21 [Example 33]
24 | 17.8 | C[C@H]1Cn2nc(OC3CCOCC3)cc2-c2onc([C@@](C)(O)C(F)(F)F)c21 (racemic) [Example 35]
25 | 24.3 | C[C@H]1Cn2nc(C34CCC(C#N)(CC3)CC4)cc2-c2cnnc([C@@](C)(O)C(F)(F)F)c21 (racemic) [Example 103, 4-[(R)-5-methyl-4-((R)-1,1,1-trifluoro-2-hydroxypropan-2-yl)-5,6-dihydropyrazolo[1′,5′:1,2]pyrido[3,4-d]pyridazin-9-yl]bicyclo[2.2.2]octane-1-carbonitrile and 4-[(S)-5-methyl-4-((S)-1,1,1-trifluoro-2-hydroxypropan-2-yl)-5,6-dihydropyrazolo[1′,5′:1,2]pyrido[3,4-d]pyridazin-9-yl]bicyclo[2.2.2]octane-1-carbonitrile]
26 | 9.4 | COC(=O)C12CC(c3nnc4n3C[C@H](C)c3c([C@@](C)(O)C(F)(F)F)noc3-4)(C1)C2 [Example 10]
27 | 23.3 | C[C@H]1Cn2nc(C34CCC(C#N)(C3)C4)cc2-c2cnc([C@@](C)(O)C(F)(F)F)n21 [Example 91, 4-((S)-5-methyl-3-((R)-1,1,1-trifluoro-2-hydroxypropan-2-yl)-5,6-dihydroimidazo[1,5-a]pyrazolo[5,1-c]pyrazin-9-yl)bicyclo[2.1.1]hexane-1-carbonitrile]
28 | 21.2 | C[C@H]1Cn2nc(C34CC(CO)(C3)C4)cc2-c2cnc([C@@](C)(O)C(F)(F)F)n21 [Example 70]
29 | 9.1 | C[C@H]1Cn2nc(O[C@H]3C[C@](C)(C#N)C3)cc2-c2onc([C@@](C)(O)C(F)(F)F)c21 [Example 63, (1R,3r)-1-methyl-3-(((R)-4-methyl-3-((R)-1,1,1-trifluoro-2-hydroxypropan-2-yl)-4,5-dihydroisoxazolo[5,4-c]pyrazolo[1,5-a]pyridin-8-yl)oxy)cyclobutane-1-carbonitrile]
30 | 7.1 | C[C@H]1Cn2nc(OC3CCOCC3)cc2-c2onc([C@@](C)(O)C(F)(F)F)c21 [Example 59, (R)-1,1,1-trifluoro-2-((R)-4-methyl-8-((tetrahydro-2H-pyran-4-yl)oxy)-4,5-dihydroisoxazolo[5,4-c]pyrazolo[1,5-a]pyridin-3-yl)propan-2-ol]
